Reference: patent US10786690B2, “Amide derivatives of polycaffeoylquinic acids, process for producing same and uses thereof” (TEMISIS, priority 2016, dated 2020)

Tests used:
LTB4 = LTB4 production by NHEKs in the inflammatory state (arachidonic acid + calcium ionophore), ELISA; assay type: cell-based, human; conditions: arachidonic acid 1 μM + calcium ionophore A23187 2 h, compounds 50 μM, NDGA 2 μM, relative to induced control
Method: (§1) The study was carried out on Normal Human Epidermal Keratinocytes (NHEKs) (Lonza, CC-2507, origin: foreskin) in monolayer culture in Epilife medium (Invitrogen, M-EPI-500-A) containing the components of the Human Keratinocyte Growth Supplement (HKGS) mixture (Invitrogen, S-001-K) added separately, except hydrocortisone having anti-inflammatory properties.
The induction of LTB4 production having a very fast kinetics, the scheme was adapted. In this case, the inflammatory state was induced for 2 h by applying arachidonic acid (a.a./1 μM/ethanol) combined with calcium ionophore A23187 (2 μM/DMSO). Nordihydroguaiaretic acid (NDGA) was used as reference molecule (2 μM/ethanol).
(§2) The effect of the compounds was studied by applying them to the keratinocyte culture medium 2 h prior to induction of the inflammatory state as well as during induction (2 h for LTB4, 24 h for IL-8, PGE2, IL-6 and TNF-α).
(§3) Each condition was carried out in triplicate cultures and the supernatants were recovered at the end of the various treatments.
(§4) Quantification of the various inflammatory mediators was carried out with specific kits, based on a standard curve, according to the instructions provided by the kits' suppliers, R&D Systems and Cayman Chemical.
(§5) Before induction of the inflammatory state, the NHEKs were treated with the compounds and reference molecules for 2 h. The inflammatory state was then induced according to the conditions described in the methodology section, the culture supernatants were collected, and the various inflammatory mediators were quantified by the ELISA technique.
The effects of the compounds on LTB4 production are shown in FIG. 8 and are expressed as a percentage of the treatment with arachidonic acid (a.a.) combined with calcium ionophore A23187 set at 100%.

[1] = tested on: Normal Human Epidermal Keratinocytes (NHEKs); assay: Microscopic observation of NHEK cell survival 48 h after inflammatory treatment; assay type: cell-based; conditions: for Result at 48 h: cell survival: NHEK cultures 48 h after inflammatory treatment (10 ng/mL PMA + 2 μM calcium ionophore A23187), microscopic observation; for effect on cell survival / cellular protection against inflammation: NHEK cultures 48 h after inflammatory treatment, summary in words
Method: The cells, treated and not treated by the compounds to be tested, were observed under an optical microscope 48 h after the following inflammatory treatment: 10 ng/mL PMA/H2O+2 μM calcium ionophore A23187/DMSO.
NHEKs were brought into contact or not with the compounds to be tested. After 2 h, the cells underwent or not an inflammation treatment (10 ng/mL PMA/H2O+2 μM calcium ionophore A23187/DMSO).
The cells were observed under an optical microscope 48 h after the inflammatory treatment.

PGE2 = PGE2 production by NHEKs in the inflammatory state (PMA), ELISA; assay type: cell-based, human; conditions: PMA 10 ng/ml 24 h, compounds 50 μM, indomethacin 10 μg/ml, relative to PMA induced control (100%)
Method: as §1
For the quantification of IL-8 and PGE2, the inflammatory state of the NHEKs in culture was induced by treatment with PMA (phorbol myristate acetate/10 ng/ml/H2O) for 24 h. Induction of IL-6 was achieved by treatment with PMA (10 ng/ml/H2O) combined with calcium ionophore A23187 (2 μM/DMSO) in medium containing calcium at a concentration of 0.8 mM. TNF-α secretion was induced by a combination of PMA (10 ng/ml/H2O) and calcium ionophore A23187 (2 μM/DMSO) applied for 24 h (TNF-α) in medium containing 0.06 mM calcium. The reference molecules used are dexamethasone (10 μM/H2O) and indomethacin (10 μg/ml/ethanol).
as §2, §3, §4, §5
The effect of the compounds on PGE2 production is presented in FIG. 5 and is expressed as a percentage of the PMA treatment set at 100%.

IL-6 = IL-6 production by NHEKs in the inflammatory state (PMA + calcium ionophore, 0.8 mM Ca2+), ELISA; assay type: cell-based, human; conditions: PMA + calcium ionophore A23187, 0.8 mM Ca2+, compounds 50 μM, dexamethasone 10 μM, relative to induced control
Method: as §1
For the quantification of IL-8 and PGE2, the inflammatory state of the NHEKs in culture was induced by treatment with PMA (phorbol myristate acetate/10 ng/ml/H2O) for 24 h. […]
as §4, §5
The effect of the compounds on IL-6 production by NHEKs in the inflammatory state is shown in FIG. 6 and is expressed as a percentage of the treatment with PMA combined with calcium ionophore A23187 (under high-calcium conditions: 0.8 mM Ca2+).

TNF-α = TNF-α production by NHEKs in the inflammatory state (PMA + calcium ionophore, 0.06 mM Ca2+), ELISA; assay type: cell-based, human; conditions: PMA + calcium ionophore A23187 24 h, compounds 50 μM, dexamethasone 10 μM, relative to induced control
Method: as §1
(§6) For the quantification of IL-8 and PGE2, the inflammatory state of the NHEKs in culture was induced by treatment with PMA (phorbol myristate acetate/10 ng/ml/H2O) for 24 h. Induction of IL-6 was achieved by treatment with PMA (10 ng/ml/H2O) combined with calcium ionophore A23187 (2 μM/DMSO) in medium containing calcium at a concentration of 0.8 mM. […]
as §4
(§7) Before induction of the inflammatory state, the NHEKs were treated with the compounds and reference molecules for 2 h. The inflammatory state was then induced according to the conditions described in the methodology section, the culture supernatants were collected, and the various inflammatory mediators were quantified by the ELISA technique. […]

IL-8 = IL-8 production by NHEKs in the inflammatory state (PMA), ELISA; assay type: cell-based, human; conditions: PMA 10 ng/ml 24 h, compounds 50 μM, dexamethasone 10 μM, relative to PMA induced control (100%)
Method: as §1, §6, §4, §7

Structure (SMILES)	LTB4 production (LTB4)	Result at 48 h: cell survival [1]	effect on cell survival / cellular protection against inflammation [1]	PGE2 production (PGE2)	IL-6 production (IL-6)	TNF-α production (TNF-α)	IL-8 production (IL-8)
CC(Cc1ccc(O)c(O)c1)C(C)Cc1ccc(O)c(O)c1 (stereo not drawn) [NDGA, Nordihydroguaiaretic acid, reference compound]	very highly significantly inhibits	–	–	–	–	–	–
O=C(/C=C/c1ccc(O)c(O)c1)O[C@@H]1[C@H](O)C[C@@](O)(C(=O)O)C[C@H]1OC(=O)/C=C/c1ccc(O)c(O)c1 [PAT964, 3,4-O-Dicaffeoylquinic]	–	10% cell survival	little or no effect on cell survival	–	–	–	–
O=C(/C=C/c1ccc(O)c(O)c1)O[C@@H]1C[C@](O)(C(=O)O)C[C@@H](OC(=O)/C=C/c2ccc(O)c(O)c2)[C@H]1O [PAT965, 3,5-O-Dicaffeoylquinic]	–	10% cell survival	little or no effect on cell survival	–	–	–	–
O=C(/C=C/c1ccc(O)c(O)c1)O[C@H]1[C@H](O)C[C@](O)(C(=O)O)C[C@H]1OC(=O)/C=C/c1ccc(O)c(O)c1 [PAT967, 4,5-O-Dicaffeoylquinic]	–	10% cell survival	little or no effect on cell survival	very highly significantly decrease	–	–	–
CCCCCCCCCCCCNC(=O)[C@]1(O)C[C@@H](OC(=O)/C=C/c2ccc(O)c(O)c2)[C@@H](O)[C@H](OC(=O)/C=C/c2ccc(O)c(O)c2)C1 [PAT1648, (2E,2′E)-((1R,2S,3R,5S)-5-(dodecylcarbamoyl)-2,5-dihydroxycyclohexane-1,3-diyl) bis(3-(3,4-dihydroxyphenyl) acrylate)]	block/decrease, in a very highly significant manner	Confluent culture: 100%	strong cellular protection against inflammation	very highly significantly decrease	largest decreases and are more effective than dexamethasone itself	most marked effects and are more effective than dexamethasone itself	inhibit/reduce IL-8 production to the baseline level
CCCCNC(=O)[C@]1(O)C[C@@H](OC(=O)/C=C/c2ccc(O)c(O)c2)[C@@H](O)[C@H](OC(=O)/C=C/c2ccc(O)c(O)c2)C1 [PAT1658, (2E,2′E)-((1R,2S,3R,5S)-5-(butylcarbamoyl)-2,5-dihydroxycyclohexane-1,3-diyl) bis(3-(3,4-dihydroxyphenyl)acrylate)]	block/decrease, in a very highly significant manner	80% cell survival	strong cellular protection against inflammation	very highly significantly decrease	–	–	–
C[C@@H]1C[C@H]2[C@@H]3CCC4=CC(=O)C=C[C@]4(C)[C@@]3(F)[C@@H](O)C[C@]2(C)[C@@]1(O)C(=O)CO [dexamethasone]	–	10% cell survival	–	–	–	–	–
COc1ccc2c(c1)c(CC(=O)O)c(C)n2C(=O)c1ccc(Cl)cc1 [indomethacin, reference compound]	–	–	–	reduces this PGE2 production in the culture supernatants to an almost undetectable level	–	–	–
